From patent US9944647B2 (Incyte Corporation, priority 2015, dated 2018)

What follows are compounds tested against LSD-1 enzyme (Homo sapiens (Human), UniProt O60341) (assay: LANCE LSD1/KDM1A demethylase assay (LSD1 histone demethylase biochemical assay)). Conditions: 1 nM LSD-1 enzyme, 1 hour preincubation at 25° C., Biotin-labeled Histone H3 peptide substrate.

SMILES | IC50
CN(C)C1CCN(c2nc(-c3ccc(C#N)cc3)c(-c3ccc4scnc4c3)c3nccn23)CC1 [Example 120, 4-{8-(1,3-benzothiazol-5-yl)-5-[4-(dimethylamino)piperidin-1-yl]imidazo[1,2-c]pyrimidin-7-yl}benzonitrile] | ≤ 50 nM
CN(C)C1CCN(c2nc(-c3ccc(C#N)cc3)c(-c3ccc4c(c3)C(O)CC4)c3nccn23)CC1 (stereo not shown) [Example 121, 4-[5-[4-(dimethylamino)piperidin-1-yl]-8-(3-hydroxy-2,3-dihydro-1H-inden-5-yl)imidazo[1,2-c]pyrimidin-7-yl]benzonitrile] | ≤ 50 nM
CN(C)C1CCN(c2nc(-c3ccc(C#N)cc3)c(-c3ccc4c(c3)CC(O)C4)c3nccn23)CC1 (stereo not shown) [Example 122, 4-[5-[4-(dimethylamino)piperidin-1-yl]-8-(2-hydroxy-2,3-dihydro-1H-inden-5-yl)imidazo[1,2-c]pyrimidin-7-yl]benzonitrile] | ≤ 50 nM
CN1CCC[C@@H](COc2nc(-c3ccc(C#N)cc3)c(-c3ccc4c(c3)C(O)CC4)c3nccn23)C1 (stereo partly drawn) [Example 123, 4-(8-(3-hydroxy-2,3-dihydro-1H-inden-5-yl)-5-{[(3R)-1-methylpiperidin-3-yl]methoxy}imidazo[1,2-c]pyrimidin-7-yl)benzonitrile] | ≤ 50 nM
CN1CCC[C@@H](COc2nc(-c3ccc(C#N)cc3)c(-c3ccc4c(c3)CC(O)C4)c3nccn23)C1 (stereo partly drawn) [Example 124, 4-(8-(2-hydroxy-2,3-dihydro-1H-inden-5-yl)-5-{[(3R)-1-methylpiperidin-3-yl]methoxy}imidazo[1,2-c]pyrimidin-7-yl)benzonitrile] | ≤ 50 nM
CN(C)C1CCN(c2nc(-c3ccc(C#N)cc3)c(-c3cnc4c(ccn4C)c3)c3nccn23)CC1 [Example 125, 4-[5-[4-(dimethylamino)piperidin-1-yl]-8-(1-methyl-1H-pyrrolo[2,3-b]pyridin-5-yl)imidazo[1,2-c]pyrimidin-7-yl]benzonitrile] | ≤ 50 nM
CN(C)C1CCN(c2nc(-c3ccc(C#N)cc3)c(-c3ccc4nccnc4c3)c3nccn23)CC1 [Example 126, 4-{5-[4-(dimethylamino)piperidin-1-yl]-8-quinoxalin-6-ylimidazo[1,2-c]pyrimidin-7-yl}benzonitrile] | 50 to 500 nM
CN(C)C1CCN(c2nc(-c3ccc(C#N)cc3)c(-c3ccc4c(c3F)n(C)c(=O)n4C)c3nccn23)CC1 [Example 127, 4-[5-[4-(dimethylamino)piperidin-1-yl]-8-(4-fluoro-1,3-dimethyl-2-oxo-2,3-dihydro-1H-benzimidazol-5-yl)imidazo[1,2-c]pyrimidin-7-yl]benzonitrile] | ≤ 50 nM
CN(C)C1CCN(c2nc(-c3ccc(C#N)cc3)c(-c3cc(F)c4c(c3)n(C)c(=O)n4C)c3nccn23)CC1 [Example 128, 4-[5-[4-(dimethylamino)piperidin-1-yl]-8-(7-fluoro-1,3-dimethyl-2-oxo-2,3-dihydro-1H-benzimidazol-5-yl)imidazo[1,2-c]pyrimidin-7-yl]benzonitrile] | ≤ 50 nM
CN(C)C1CCN(c2nc(-c3ccc(C#N)cc3)c(-c3cc4c(cc3F)n(C)c(=O)n4C)c3nccn23)CC1 [Example 129, 4-[5-[4-(dimethylamino)piperidin-1-yl]-8-(6-fluoro-1,3-dimethyl-2-oxo-2,3-dihydro-1H-benzimidazol-5-yl)imidazo[1,2-c]pyrimidin-7-yl]benzonitrile] | ≤ 50 nM
CN1C(=O)CCc2cc(-c3c(-c4ccc(C#N)cc4)nc(N4CCC(N(C)C)CC4)n4ccnc34)ccc21 [Example 130, 4-[5-[4-(dimethylamino)piperidin-1-yl]-8-(1-methyl-2-oxo-1,2,3,4-tetrahydroquinolin-6-yl)imidazo[1,2-c]pyrimidin-7-yl]benzonitrile] | ≤ 50 nM
CN1C(=O)CCc2ccc(-c3c(-c4ccc(C#N)cc4)nc(N4CCC(N(C)C)CC4)n4ccnc34)cc21 [Example 131, 4-[5-[4-(dimethylamino)piperidin-1-yl]-8-(1-methyl-2-oxo-1,2,3,4-tetrahydroquinolin-7-yl)imidazo[1,2-c]pyrimidin-7-yl]benzonitrile] | 50 to 500 nM
Cc1ncc(-c2c(-c3ccc(C#N)cc3)nc(N3CCC(N(C)C)CC3)n3ccnc23)cc1C(F)F [Example 132, 4-{8-[5-(difluoromethyl)-6-methylpyridin-3-yl]-5-[4-(dimethylamino)piperidin-1-yl]imidazo[1,2-c]pyrimidin-7-yl}benzonitrile] | 50 to 500 nM
C[C@@H](O)CN1CCC[C@@H](COc2nc(-c3ccc(C#N)cc3)c(-c3ccc4c(c3)oc(=O)n4C)c3nccn23)C1 [Example 133, 4-[5-({(3R)-1-[(2R)-2-hydroxypropyl]piperidin-3-yl}methoxy)-8-(3-methyl-2-oxo-2,3-dihydro-1,3-benzoxazol-6-yl)imidazo[1,2-c]pyrimidin-7-yl]benzonitrile] | 50 to 500 nM
C[C@H](O)CN1CCC[C@@H](COc2nc(-c3ccc(C#N)cc3)c(-c3ccc4c(c3)oc(=O)n4C)c3nccn23)C1 [Example 134, 4-[5-({(3R)-1-[(2S)-2-hydroxypropyl]piperidin-3-yl}methoxy)-8-(3-methyl-2-oxo-2,3-dihydro-1,3-benzoxazol-6-yl)imidazo[1,2-c]pyrimidin-7-yl]benzonitrile] | ≤ 50 nM
Cn1c(=O)oc2cc(-c3c(-c4ccc(C#N)cc4)nc(OC[C@@H]4CCCN(CC(C)(C)O)C4)n4ccnc34)ccc21 [Example 135, 4-[5-{[(3R)-1-(2-hydroxy-2-methylpropyl)piperidin-3-yl]methoxy}-8-(3-methyl-2-oxo-2,3-dihydro-1,3-benzoxazol-6-yl)imidazo[1,2-c]pyrimidin-7-yl]benzonitrile] | 50 to 500 nM
C[C@@H](O)CN1CCC[C@@H](COc2nc(-c3ccc(C#N)cc3)c(-c3cnc4c(cnn4C)c3)c3nccn23)C1 [Example 136, 4-[5-({(3R)-1-[(2R)-2-hydroxypropyl]piperidin-3-yl}methoxy)-8-(1-methyl-1H-pyrazolo[3,4-b]pyridin-5-yl)imidazo[1,2-c]pyrimidin-7-yl]benzonitrile] | 50 to 500 nM
C[C@H](O)CN1CCC[C@@H](COc2nc(-c3ccc(C#N)cc3)c(-c3cnc4c(cnn4C)c3)c3nccn23)C1 [Example 137, 4-[5-({(3R)-1-[(2S)-2-hydroxypropyl]piperidin-3-yl}methoxy)-8-(1-methyl-1H-pyrazolo[3,4-b]pyridin-5-yl)imidazo[1,2-c]pyrimidin-7-yl]benzonitrile] | ≤ 50 nM
Cn1ncc2cc(-c3c(-c4ccc(C#N)cc4)nc(OC[C@@H]4CCCN(CC(C)(C)O)C4)n4ccnc34)cnc21 [Example 138, 4-[5-{[(3R)-1-(2-hydroxy-2-methylpropyl)piperidin-3-yl]methoxy}-8-(1-methyl-1H-pyrazolo[3,4-b]pyridin-5-yl)imidazo[1,2-c]pyrimidin-7-yl]benzonitrile] | 50 to 500 nM
